Tested on: truncated vancomycin aptamer (four base pairs removed from the stem), E-AB sensor (DNA, aptamer) CGAGGGTACCGCAATAGTACTTATTGTTCGCCTATTGTGGGTCGG
Assay: electrochemical aptamer-based sensor, square-wave voltammetry
Details: undiluted flowing whole blood; surface-attached aptamer; apparent

KD: 45 µM
SMILES: CN[C@H](CC(C)C)C(=O)N[C@H]1C(=O)N[C@@H](CC(N)=O)C(=O)N[C@H]2C(=O)N[C@H]3C(=O)N[C@H](C(=O)N[C@H](C(=O)O)c4cc(O)cc(O)c4-c4cc3ccc4O)[C@H](O)c3ccc(c(Cl)c3)Oc3cc2cc(c3O[C@@H]2O[C@H](CO)[C@@H](O)[C@H](O)[C@H]2O[C@H]2C[C@](C)(N)[C@H](O)[C@H](C)O2)Oc2ccc(cc2Cl)[C@H]1O

From PMC6886665 (2019)
